What was measured:
Assay type in all cases: in vivo
[1] = system: Echinochloa oryzacola Vasing.; assay: Test Example 1: herbicidal activity, application before weed generation in submerged conditions (symbol A); details: application herbicide amount 320 g/ha
How it was run: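 Flooded alluvial soil (4 cm water) was mixed-sown with the three weed species, and 2.5-leaf rice seedlings were transplanted. On sowing day, a water-diluted emulsion at a predetermined rate was applied to the water surface. After 3 weeks in a 25–30 °C greenhouse, effect was scored 0–5.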

transplanted rice plant = assay: Test Example 1: effect on crop, application before weed generation in submerged conditions (symbol a); details: application herbicide amount 320 g/ha
How it was run: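 Alluvial soil pots flooded to 4 cm water, sown with Echinochloa oryzacola, Scirpus juncoides and Monochoria vaginalis, then transplanted with 2.5 leaf stage rice seedlings; pre-emergence application. Greenhouse 25° C. to 30° C.; scored 0–5 by herbicidal ratio 3 weeks after application.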

Scirpus juncoides = assay: Test Example 2: herbicidal activity, application during weed generation in submerged conditions (symbol B); details: Table 23; application herbicide amount 320 g/ha; grade 0-5 by criteria of Test Example 1
How it was run: (§1)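 Steps: fill pots with alluvial soil; add water to 4 cm depth; co-sow the three weeds; grow at 25° C. to 30° C. under glass; at 1–2 leaves, dose the floodwater with diluted emulsion; rate damage visually after 3 weeks.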

Monochoria vaginalis = assay: Test Example 2: herbicidal activity, application during weed generation in submerged conditions (symbol C); details: Table 23; application herbicide amount 320 g/ha; grade 0-5 by criteria of Test Example 1
How it was run: as §1

Cyperus difformis = assay: Test Example 3: herbicidal effect by foliage application, Wagner pot (symbol E); details: application herbicide amount 320 g/ha
How it was run: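 Post-emergence, paddy-type test: seedlings 14 d old in shallow-flooded (0.1–0.5 cm) alluvial soil, 25–30 °C greenhouse. Emulsion diluted to target rate, sprayed on leaves. Read-out: visual effect on each species at 3 weeks, per set criteria.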

[2] = system: Echinochloa crus-galli var. crus-galli; assay: Test Example 4: herbicidal effect by soil treatment (symbol H); details: application herbicide amount 320 g/ha
How it was run: (§2)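 Seeds were sown in sterilized diluvial soil, covered with about 1.5 cm of soil, and the soil surface was sprayed with a water-diluted emulsion of the compound at a predetermined rate. Plants grew in a greenhouse at 25° C. to 30° C.; effects were scored visually 3 weeks after application.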

Abutilon theophrasti = assay: Test Example 4: herbicidal effect by soil treatment (symbol M); details: application herbicide amount 320 g/ha
How it was run: as §2

Chenopodium album = assay: Test Example 4: herbicidal effect by soil treatment (symbol O); details: application herbicide amount 320 g/ha
How it was run: as §2

Setaria viridis = assay: Test Example 5: herbicidal effect by foliage application, plastic box (symbol G); details: 320 g/ha, 3 weeks after application
How it was run: (§3)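 Effect is rated 3 weeks after a foliar spray of water-diluted emulsion concentrate at a predetermined herbicide amount. Plants had grown 14 days in a 25° C. to 30° C. greenhouse from seed in sterilized diluvial soil.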

Amaranthus retroflexus = assay: Test Example 5: herbicidal effect by foliage application, plastic box (symbol N); details: 320 g/ha, 3 weeks after application
How it was run: as §3

corn = assay: Test Example 5: effect on crop by foliage application, plastic box (symbol c); details: 320 g/ha, 3 weeks after application
How it was run: (§4)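 Box culture: sterile diluvial soil, seeds spot-sown, ~1.5 cm cover, raised under glass at 25–30° C.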

soybean = assay: Test Example 5: effect on crop by foliage application, plastic box (symbol d); details: 320 g/ha, 3 weeks after application
How it was run: as §4

Veronica persica = assay: Test Example 4: herbicidal effect by soil treatment (symbol R); details: application herbicide amount 320 g/ha
How it was run: as §2

Structure (SMILES)	Herbicidal effect grade, A: Echinochloa oryzacola Vasing. [1]	Effect grade on crop, a: transplanted rice plant (transplanted rice plant)	Herbicidal effect grade, B: Scirpus juncoides (Scirpus juncoides)	Herbicidal effect grade, C: Monochoria vaginalis (Monochoria vaginalis)	herbicidal effect on E, grade 0-5 (Cyperus difformis)	G: Setaria viridis, herbicidal effect grade (Setaria viridis)	N: Amaranthus retroflexus, herbicidal effect grade (Amaranthus retroflexus)	c: corn, effect on crop grade (corn)	d: soybean, effect on crop grade (soybean)	H: Echinochloa crus-galli var. crus-galli, herbicidal effect grade [2]	M: Abutilon theophrasti, herbicidal effect grade (Abutilon theophrasti)	R: Veronica persica, herbicidal effect grade (Veronica persica)	G: Setaria viridis, herbicidal effect (criteria of Test Example 1) (Setaria viridis)	N: Amaranthus retroflexus, herbicidal effect (criteria of Test Example 1) (Amaranthus retroflexus)	c: corn, effect on crop (criteria of Test Example 1) (corn)	d: soybean, effect on crop (criteria of Test Example 1) (soybean)	further results
COC(=O)CON=C(C)CC1CC(O)=C(c2c(C)cc(C)cc2C)C1=O (stereo not drawn) [1-023]	4 (Herbicidal ratio of 70% or higher and lower than 90%)	1 (Herbicidal ratio of 5% or higher and lower than 20%)	0 (Herbicidal ratio of 5% or lower (almost no effect))	0 (Herbicidal ratio of 5% or lower (almost no effect))	0 (Herbicidal ratio of 5% or lower (almost no effect))	1 (Herbicidal ratio of 5% or higher and lower than 20%)	0 (Herbicidal ratio of 5% or lower (almost no effect))	1 (Herbicidal ratio of 5% or higher and lower than 20%)	0 (Herbicidal ratio of 5% or lower (almost no effect))								H (Echinochloa crus-galli var. crus-galli) herbicidal effect grade [2]: 3 (Herbicidal ratio of 40% or higher and lower than 70%); M (Abutilon theophrasti) herbicidal effect grade (Abutilon theophrasti): 0 (Herbicidal ratio of 5% or lower (almost no effect)); O (Chenopodium album) herbicidal effect grade (Chenopodium album): 0 (Herbicidal ratio of 5% or lower (almost no effect))
CON=C(C)CC1CC(O)=C(c2c(C)cc(C3CC3)cc2C)C1=O (stereo not drawn) [6-050]	3 (Herbicidal ratio of 40% or higher and lower than 70%)	4 (Herbicidal ratio of 70% or higher and lower than 90%)	0 (Herbicidal ratio of 5% or lower (almost no effect))	0 (Herbicidal ratio of 5% or lower (almost no effect))	5 (Herbicidal ratio of 90% or more (almost completely withered))	2 (Herbicidal ratio of 20% or higher and lower than 40%)	0 (Herbicidal ratio of 5% or lower (almost no effect))	4 (Herbicidal ratio of 70% or higher and lower than 90%)	0 (Herbicidal ratio of 5% or lower (almost no effect))	4 (Herbicidal ratio of 70% or higher and lower than 90%)	0 (Herbicidal ratio of 5% or lower (almost no effect))	0 (Herbicidal ratio of 5% or lower (almost no effect))					
CON=C(C)CC1CC(OC(=O)N2CCOCC2)=C(c2c(C)cc(-c3ccc(Cl)cc3)cc2C)C1=O (mixture of isomers) [6-062]	5 (Herbicidal ratio of 90% or more (almost completely withered))	5 (Herbicidal ratio of 90% or more (almost completely withered))	3 (Herbicidal ratio of 40% or higher and lower than 70%)	3 (Herbicidal ratio of 40% or higher and lower than 70%)	5 (Herbicidal ratio of 90% or more (almost completely withered))					5 (Herbicidal ratio of 90% or more (almost completely withered))	0 (Herbicidal ratio of 5% or lower (almost no effect))	3 (Herbicidal ratio of 40% or higher and lower than 70%)	5 (Herbicidal ratio of 90% or more (almost completely withered))	1 (Herbicidal ratio of 5% or higher and lower than 20%)	5 (Herbicidal ratio of 90% or more (almost completely withered))	0 (Herbicidal ratio of 5% or lower (almost no effect))	
CON=C(C)CC1CC(O)=C(c2c(C)cc(OCc3ccncc3)cc2C)C1=O (mixture of isomers) [6-053]	4 (Herbicidal ratio of 70% or higher and lower than 90%)	3 (Herbicidal ratio of 40% or higher and lower than 70%)	1 (Herbicidal ratio of 5% or higher and lower than 20%)	2 (Herbicidal ratio of 20% or higher and lower than 40%)	3 (Herbicidal ratio of 40% or higher and lower than 70%)	5 (Herbicidal ratio of 90% or more (almost completely withered))	0 (Herbicidal ratio of 5% or lower (almost no effect))	2 (Herbicidal ratio of 20% or higher and lower than 40%)	0 (Herbicidal ratio of 5% or lower (almost no effect))	2 (Herbicidal ratio of 20% or higher and lower than 40%)	0 (Herbicidal ratio of 5% or lower (almost no effect))	0 (Herbicidal ratio of 5% or lower (almost no effect))					
CC(=O)CC1CC(O)=C(c2c(C)cc(C)cc2Br)C1=O (stereo not drawn) [7-011]	2 (Herbicidal ratio of 20% or higher and lower than 40%)	1 (Herbicidal ratio of 5% or higher and lower than 20%)	2 (Herbicidal ratio of 20% or higher and lower than 40%)	0 (Herbicidal ratio of 5% or lower (almost no effect))	5 (Herbicidal ratio of 90% or more (almost completely withered))								3 (Herbicidal ratio of 40% or higher and lower than 70%)	5 (Herbicidal ratio of 90% or more (almost completely withered))	2 (Herbicidal ratio of 20% or higher and lower than 40%)	0 (Herbicidal ratio of 5% or lower (almost no effect))	Herbicidal effect grade, H: Echinochloa crus-galli var. crus-galli [2]: 4 (Herbicidal ratio of 70% or higher and lower than 90%); Herbicidal effect grade, M: Abutilon theophrasti (Abutilon theophrasti): 0 (Herbicidal ratio of 5% or lower (almost no effect)); Herbicidal effect grade, R: Veronica persica (Veronica persica): 0 (Herbicidal ratio of 5% or lower (almost no effect))
CON=C(C)CC1CC(O)=C(c2c(C)cc(-c3ccc(OC(F)(F)F)cc3)cc2C)C1=O (mixture of isomers) [6-056]	3 (Herbicidal ratio of 40% or higher and lower than 70%)	0 (Herbicidal ratio of 5% or lower (almost no effect))	0 (Herbicidal ratio of 5% or lower (almost no effect))	0 (Herbicidal ratio of 5% or lower (almost no effect))	3 (Herbicidal ratio of 40% or higher and lower than 70%)					0 (Herbicidal ratio of 5% or lower (almost no effect))	0 (Herbicidal ratio of 5% or lower (almost no effect))	0 (Herbicidal ratio of 5% or lower (almost no effect))	5 (Herbicidal ratio of 90% or more (almost completely withered))	0 (Herbicidal ratio of 5% or lower (almost no effect))	1 (Herbicidal ratio of 5% or higher and lower than 20%)	0 (Herbicidal ratio of 5% or lower (almost no effect))	
CON=C(C)CC1CC(OC(=O)COc2ccccc2)=C(c2c(C)cc(-c3ccc(Cl)cc3)cc2C)C1=O (mixture of isomers) [6-061]	5 (Herbicidal ratio of 90% or more (almost completely withered))	5 (Herbicidal ratio of 90% or more (almost completely withered))	4 (Herbicidal ratio of 70% or higher and lower than 90%)	2 (Herbicidal ratio of 20% or higher and lower than 40%)	5 (Herbicidal ratio of 90% or more (almost completely withered))					5 (Herbicidal ratio of 90% or more (almost completely withered))	1 (Herbicidal ratio of 5% or higher and lower than 20%)	4 (Herbicidal ratio of 70% or higher and lower than 90%)	5 (Herbicidal ratio of 90% or more (almost completely withered))	1 (Herbicidal ratio of 5% or higher and lower than 20%)	5 (Herbicidal ratio of 90% or more (almost completely withered))	3 (Herbicidal ratio of 40% or higher and lower than 70%)	
